IC50 and pIC50 data for 23 compounds are collected here from ChEMBL document CHEMBL1629480, “Molecular docking and QSAR study on steroidal compounds as aromatase inhibitors” (Eur J Med Chem, 2010).

This series concerns the target T1, Aromatase (Homo sapiens, UniProt P11511).
T1 sequence (P11511 whole entry): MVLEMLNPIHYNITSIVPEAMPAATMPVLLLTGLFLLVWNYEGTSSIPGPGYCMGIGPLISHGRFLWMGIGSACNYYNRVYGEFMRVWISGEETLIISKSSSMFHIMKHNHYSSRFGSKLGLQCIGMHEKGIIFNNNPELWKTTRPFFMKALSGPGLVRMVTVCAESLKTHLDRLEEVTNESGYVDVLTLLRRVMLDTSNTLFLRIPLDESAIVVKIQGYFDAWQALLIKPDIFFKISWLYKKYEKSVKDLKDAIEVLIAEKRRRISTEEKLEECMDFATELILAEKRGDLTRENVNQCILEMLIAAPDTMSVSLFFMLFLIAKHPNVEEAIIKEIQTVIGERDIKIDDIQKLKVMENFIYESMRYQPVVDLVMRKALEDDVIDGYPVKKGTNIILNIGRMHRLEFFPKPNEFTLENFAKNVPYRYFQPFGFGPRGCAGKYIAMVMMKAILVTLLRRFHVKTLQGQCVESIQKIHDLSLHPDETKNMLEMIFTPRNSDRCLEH
Nature of the series: Inhibition of human placental aromatase. The note with it: for pIC50: human.

For orientation: IC50 means the concentration that gives 50% inhibition. A lower IC50 goes with greater potency.

The compound `C[C@]12CCC=C[C@@H]1CC[C@@H]1[C@@H]2CC[C@]2(C)C(=O)CC[C@@H]12` gave an IC50 of 225 nM and a pIC50 of 0.648 uM.

Turning to `C[C@]12CCC=C[C@@H]1CC[C@@H]1[C@@H]2CC[C@]2(C)[C@@H](O)CC[C@@H]12`, the IC50 came out at 30000 nM and the pIC50 is -1.477 uM.

For `C[C@]12CC[C@H]3O[C@H]3[C@@H]1CC[C@@H]1[C@@H]2CC[C@]2(C)C(=O)CC[C@@H]12`, the pIC50 turned out to be 0.839 uM.

As to `C[C@]12CC[C@H]3O[C@H]3[C@@H]1CC[C@@H]1[C@@H]2CC[C@]2(C)[C@@H](O)CC[C@@H]12`, the IC50 was determined as 6500 nM and the pIC50 is listed as -0.813 uM.

With `C[C@]12CC[C@H]3[C@@H](CCC4=CCCC[C@@]43CO)[C@@H]1CCC2=O`, the pIC50 stood at 1.31 uM.

Compound `CCCC(=O)OC1=C2CC[C@@H]3[C@H](CC[C@]4(C)C(=O)CC[C@@H]34)[C@@]2(C)CCC1` showed an IC50 of 1500 nM and a pIC50 of -0.176 uM.

The compound `CCCCCC(=O)OC1=C2CC[C@@H]3[C@H](CC[C@]4(C)C(=O)CC[C@@H]34)[C@@]2(C)CCC1` had an IC50 of 1800 nM and a pIC50 of -0.255 uM.

`C[C@]12CCCC(OC(=O)c3ccccc3)=C1CC[C@@H]1[C@@H]2CC[C@]2(C)C(=O)CC[C@@H]12` showed an IC50 of 640 nM and a pIC50 of 0.194 uM.

`CC(=O)OC1=C2CC[C@@H]3[C@H](CC[C@]4(C)C(=O)CC[C@@H]34)[C@@]2(C)CCC1` came in with an IC50 of 660 nM and a pIC50 of 0.18 uM.

The compound `CC(=O)OC1=C2CC[C@@H]3[C@H](CC[C@]4(C)C(=O)CC[C@@H]34)[C@@]2(CO)CCC1` yielded an IC50 of 3600 nM and a pIC50 of -0.556 uM.

Consider `C[C@]12CC[C@H]3[C@@H](C[C@H](O)C4=CCCC[C@@]43CO)[C@@H]1CCC2=O`, for which the IC50 was 1000 nM and the pIC50 is reported as -0.146 uM.

Take `C[C@]12CC[C@H]3[C@@H](C[C@@H](O)C4=CCCC[C@@]43CO)[C@@H]1CCC2=O`: the pIC50 is 0.027 uM.

As to `CC(=O)OC1CCC[C@@]2(C)C1=CC[C@@H]1[C@@H]2CC[C@]2(C)C(=O)CC[C@@H]12` (stereo partly drawn), the pIC50 was found to be 0 uM.

`CC(=O)OC1CCC[C@@]2(CO)C1=CC[C@@H]1[C@@H]2CC[C@]2(C)C(=O)CC[C@@H]12` (stereo partly drawn): the IC50 came out at 11000 nM and the pIC50 is reported as -1.041 uM.

As for `CO[C@H]1CCC[C@@]2(CO)C1=CC[C@@H]1[C@@H]2CC[C@]2(C)C(=O)CC[C@@H]12`, the pIC50 is on record as -2.176 uM.

In the case of `C[C@H]1CCC[C@@]2(C)C1=CC[C@@H]1[C@@H]2CC[C@]2(C)C(=O)CC[C@@H]12`, the IC50 was determined as 1800 nM and the pIC50 is on record as -0.255 uM.

Compound `CC[C@H]1CCC[C@@]2(C)C1=CC[C@@H]1[C@@H]2CC[C@]2(C)C(=O)CC[C@@H]12` had an IC50 of 4500 nM and a pIC50 of -0.653 uM.

`CCC[C@H]1CCC[C@@]2(C)C1=CC[C@@H]1[C@@H]2CC[C@]2(C)C(=O)CC[C@@H]12` displayed an IC50 of 5500 nM and a pIC50 of -0.74 uM.

Compound `C[C@]12CCCC(=O)[C@@H]1CC[C@@H]1[C@@H]2CC[C@]2(C)C(=O)CC[C@@H]12` came in with an IC50 of 2400 nM and a pIC50 of -0.38 uM.

`C[C@]12CC[C@@H](O)C(=O)[C@@H]1CC[C@@H]1[C@@H]2CC[C@]2(C)C(=O)CC[C@@H]12` registered a pIC50 of 0.174 uM.

On to `C[C@]12CCC(=O)C(O)=C1CC[C@@H]1[C@@H]2CC[C@]2(C)OC(=O)CC[C@@H]12`, for which the midpoint of inhibition, the IC50, lay at 1850 nM and the pIC50 was -0.267 uM.

In turn, `C[C@]12CC[C@H]3[C@@H](CC=C4CCCC[C@]43C)[C@@H]1CCC2=O` gave an IC50 of 660 nM.

Regarding `C[C@]12CCC(=O)C(O)=C1CC[C@@H]1[C@@H]2CC[C@]2(C)C(=O)CC[C@@H]12` [FORMESTANE], the pIC50 is listed as 1.377 uM.
